Test results from PMC8389614, “A Comparison of Acute Pharmacological Effects of Methylone and MDMA Administration in Humans and Oral Fluid Concentrations as Biomarkers of Exposure” (Biology, 2021).
Read-outs that look alike come from different tables or passages of the source.

Key:
[1] = tested on: healthy poly-drug users; assay: Subjective effects, ARCI 49-item short form; type: in vivo, humans; set-up: key to ARCI PCAG Dunnet’s Test: “a” (times 0–1 h); “b” (times 0–2 h); “c” (times 0–4 h); not significant (NS)
Source text: (§1) The study was designed as a non-controlled prospective observational study in a naturalistic setting with methylone and MDMA self-administration. The methodology, including procedures and evaluations, coincides with previous observational–naturalistic studies aimed at evaluating the acute effects of other NPS [38, 39, 40]. Six subjects (5 M, 1 F) self-administered MDMA and 8 subjects (5 M, 3 F) self-administered methylone. Each subject participated only in one session. Participants brought their own substance obtained from an unknown source, which was tested by Energy Control, a harm reduction organization that provides a drug checking service to drug users. Pills containing methylone and MDMA were analyzed by gas chromatography associated with mass spectrometry (GC/MS), a technique that traces the presence of the most frequent drugs of abuse, such as MDMA, cocaine, heroin, amphetamine and methamphetamine, LSD, and multiple NPS (methylone, mephedrone, and other synthetic cathinones, synthetic cannabinoids, tryptamines, among others).
(§2) In both sessions, participants selected the dose of methylone or MDMA according to their previous drug use experience. Doses of methylone could be selected from a range (75–300 mg) that was previously defined according to the consulted literature. The WHO Expert Committee on Drug Dependence (Thirty-Sixth Meeting, Geneva, Switzerland, 16–20 June 2014) established that 60 mg of methylone was the threshold dose and doses over 250 mg were often related to very strong activity. Some users have reported uses of 300 mg of methylone as a common dose [www.erowid.org] (accessed on 15 June 2021). The mean of the selected doses of MDMA was 87.50 mg (3 subjects ingested 75 mg (2 males and 1 female), 3 males 100 mg). In the other study session, methylone doses ranged from 100 to 300 mg, with a mean of 187.50 mg. Based on their dose selection, 1 male ingested 100 mg, 2 subjects 150 mg (1 male and 1 female), 4 subjects 200 mg (2 males and 2 females), and 1 male 300 mg.
(§3) The sessions were conducted in a naturalistic setting. Participants were allowed to talk, read, listen to music, or play games, except during the evaluation times. However, they were asked to refrain from talking about the effects of the substance. All the subjects were evaluated simultaneously at baseline, 1, 2, and 4 h after administration of methylone or MDMA, which occurred approximately at 16:00 h. At each time point, evaluations were followed in a specific order: physiological effects, oral fluid collection, and subjective effects scales and questionnaires.
(§4) Subjective effects were evaluated at baseline, 1, 2, and 4 h after self-administration using visual analogue scales (VAS), the Addiction Research Center Inventory (ARCI), and the Evaluation of Subjective Effects of Substances with Abuse Potential questionnaire (VESSPA-SSE).
The standardized ARCI 49-item short form is a true/false questionnaire used to evaluate the subjective effects of drugs of abuse. This inventory includes five subscales that assess pentobarbital–chlorpromazine–alcohol-like effects (PCAG, sedation), morphine–benzedrine-like effects (MBG, euphoria), lysergic acid diethylamide-like effects (LSD, dysphoria), benzedrine-like effects (BG, intellectual efficiency), and amphetamine-like effects (A, increased energy).
Vital signs (SBP, DBP, and HR) and subjective effects (VAS, ARCI, and VESSPA-SSE) were baseline-adjusted. Maximum effects and the time in which maximum effects appeared were determined, and the area under the curve (AUC0–4h) was calculated with the trapezoidal rule.
Thirdly, to find possible significant changes from baseline, a Dunnett multiple comparison test was conducted to compare each time point with baseline in both drug conditions (0–1 h, 0–2 h, 0–4 h).

[2] = cited from earlier work; for Median overall OF/B ratio: oral fluid vs plasma
[3] = tested on: healthy poly-drug users; assay: Subjective effects, visual analogue scales (VAS); type: in vivo, humans; set-up: key to VAS stimulated Dunnet’s Test / VAS change in lights Dunnet’s Test / VAS different body feeling Dunnet’s Test / VAS different surrounding Dunnet’s Test / VAS dizziness Dunnet’s Test / VAS headache Dunnet’s Test / VAS face flushing Dunnet’s Test: “a” (times 0–1 h); “b” (times 0–2 h); “c” (times 0–4 h); not significant (NS)
Source text: as §1, §2, §3, §4
Visual analogue scales (100 mm, from “not at all” to “extremely”) contained 30 items that subjects were asked to rate, such as: intensity, stimulated, high, good effects, liking, happiness, drunkenness, changes in colors, changes in shapes, changes in lights, hallucinations (seeing lights or spots), hallucinations (seeing of animals), changes in hearing, hallucinations (hearing sounds or voices), different or changed body feeling, unreal body feeling, changes in distances, different surroundings, unreal surroundings, confusion, fear, depression or sadness, drowsiness, dizziness, bad effects, headache, sickness, vertigo, shortness of breath, and face flushing.
Vital signs (SBP, DBP, and HR) and subjective effects (VAS, ARCI, and VESSPA-SSE) were baseline-adjusted. Maximum effects and the time in which maximum effects appeared were determined, and the area under the curve (AUC0–4h) was calculated with the trapezoidal rule. […]

[4] = oral, methylone 100–300 mg n=8, MDMA 75–100 mg n=6, baseline-adjusted, mean ± SD
[5] = oral, methylone 100–300 mg n=8, MDMA 75–100 mg n=6, median (min–max)
[6] = time points significantly different from baseline

SMILES: CNC(C)Cc1ccc2c(c1)OCO2 (stereo not drawn) [MDMA, 3,4-methylenedioxymethamphetamine]
- ARCI A (increased energy) AUC0–4h [1, 4]: 15.75 ± 2.79
- ARCI A (increased energy) Emax [1, 4]: 5.83 ± 1.17 score
- ARCI BG (intellectual efficiency) AUC0–4h [1, 4]: 9.83 ± 6.38
- ARCI BG (intellectual efficiency) Emax [1, 4]: 4.67 ± 2.25 score
- ARCI MBG (euphoria) AUC0–4h [1, 4]: 20.83 ±10.05
- ARCI MBG (euphoria) Emax [1, 4]: 8.0 ± 3.35 score
- ARCI PCAG (sedation) AUC0–4h [1, 4]: −1.58 ± 8.39
- ARCI PCAG (sedation) Emax [1, 4]: −0.83 ± 3.54 score
- ARCI A (increased energy) Tmax [1, 5]: 1.0 (1.0–2.0) h
- ARCI A Dunnet’s Test [1, 6]: a, b, c
- ARCI BG Dunnet’s Test [1, 6]: a, b
- ARCI MBG Dunnet’s Test [1, 6]: a, b
- ARCI PCAG Dunnet’s Test [1, 6]: NS
- Maximum oral fluid to blood (OF/B) ratio ([2]; at 1.5 h after a 100 mg dose): 18.1 ± 7.9
- Median overall OF/B ratio ([2]; high dose 1.6 mg/kg): 6.0
- Median overall OF/B ratio ([2]; low dose 1.0 mg/kg): 5.2
- Time at which subjective effects in general reached maximum values ([3]; oral, VAS, ARCI, VESSPA-SSE overall): 1.5 h
- VAS change in lights AUC0–4h [3, 4]: 40.00 ± 53.35
- VAS change in lights Emax [3, 4]: 20.00 ± 25.11 mm
- VAS content AUC0–4h [3, 4]: 186.25 ± 52.39
- VAS content Emax [3, 4]: 74.50 ± 18.96 mm
- VAS different body feeling AUC0–4h [3, 4]: 95.25 ± 53.40
- VAS different body feeling Emax [3, 4]: 50.33 ± 22.59 mm
- VAS different surrounding AUC0–4h [3, 4]: 27.33 ± 39.71
- VAS different surrounding Emax [3, 4]: 17.33 ± 17.68 mm
- VAS dizziness AUC0–4h [3, 4]: 20.17 ± 20.68
- VAS dizziness Emax [3, 4]: 13.00 ± 9.84 mm
- VAS face flushing AUC0–4h [3, 4]: 89.33 ± 58.31
- VAS face flushing Emax [3, 4]: 45.00 ± 22.74 mm
- VAS good effects AUC0–4h [3, 4]: 167.67 ± 54.01
- VAS good effects Emax [3, 4]: 67.83 ± 16.51 mm
- VAS headache AUC0–4h [3, 4]: 10.58 ± 18.86
- VAS headache Emax [3, 4]: 5.83 ± 7.68 mm
- VAS high AUC0–4h [3, 4]: 136.92 ± 41.05
- VAS high Emax [3, 4]: 60.17 ± 14.96 mm
- VAS intensity AUC0–4h [3, 4]: 111.33 ± 36.34
- VAS intensity Emax [3, 4]: 47 ± 11.19 mm
- VAS stimulated AUC0–4h [3, 4]: 113.17 ± 40.92
- VAS stimulated Emax [3, 4]: 50.17 ± 17.12 mm
- VAS change in lights Tmax [3, 5]: 1.5 (0.0–4.0) h
- VAS change in lights Dunnet’s Test [3, 6]: NS
- VAS content Dunnet’s Test [3, 6]: a, b, c
- VAS different body feeling Dunnet’s Test [3, 6]: a
- VAS different surrounding Dunnet’s Test [3, 6]: a
- VAS dizziness Dunnet’s Test [3, 6]: NS
- VAS face flushing Dunnet’s Test [3, 6]: a
- VAS good effects Dunnet’s Test [3, 6]: a, b
- VAS headache Dunnet’s Test [3, 6]: NS
- VAS high Dunnet’s Test [3, 6]: a, b
- VAS intensity Dunnet’s Test [3, 6]: a, b
- VAS stimulated Dunnet’s Test [3, 6]: a, b
